Data reported in article PMC12888861, “Antibacterial activity of enmetazobactam against Acinetobacter spp.: a molecular dissection of mechanism of action and resistance determinants” (Antimicrobial Agents and Chemotherapy, 2025).

Experiments:
[1] = tested on: [H][C@@]12CC(=O)N1[C@@H](C(=O)[O-])[C@](C)(Cn1cc[n+](C)n1)S2(=O)=O; experiment: purified protein, by the assay type; conditions: other: hydrolysis by OXA-23, 25°C, pH 7.4
Protocol: All kinetics measurements were performed in triplicate, at 25°C, in 20 mM NaHCO3 and 50 mM Na2HPO4 at pH 7.4.

[2] = tested on: carbapenem-resistant CHDL-producing A. baumannii isolates (OXA-23, OXA-24/40, OXA-58); experiment: Checkerboard synergy assay (FIC index); format: cell-based, Acinetobacter baumannii; conditions: checkerboard colistin x enmetazobactam, alone or in presence of the partner
Protocol: Checkerboard assays were performed to assess synergistic interactions between the cefepime/enmetazobactam combination and sulbactam, as well as between enmetazobactam alone and either sulbactam or colistin. […] The assays were conducted with three multidrug-resistant A. baumannii isolates from the Spanish Multicenter Collection, each producing a different OXA-type carbapenemase: OXA-23, OXA-24/40, or OXA-58. The FIC index was calculated and interpreted as follows: FICindex ≤ 0.5, synergy; FICindex > 0.5–4, no synergy; and FICindex > 4, antagonism ([33], [34]).

OXA-23 [3] = target: T1, OXA-23 (Acinetobacter baumannii, UniProt Q9L4P2); experiment: OXA-23 inhibition assay (nitrocefin hydrolysis IC50); format: biochemical; conditions: OXA-23; nitrocefin hydrolysis; 10 min preincubation at room temperature; read-out: IC50
T1 construct: GST (N); made in house; host or cells: Escherichia coli BL21
T1 sequence (Q9L4P2 18-273): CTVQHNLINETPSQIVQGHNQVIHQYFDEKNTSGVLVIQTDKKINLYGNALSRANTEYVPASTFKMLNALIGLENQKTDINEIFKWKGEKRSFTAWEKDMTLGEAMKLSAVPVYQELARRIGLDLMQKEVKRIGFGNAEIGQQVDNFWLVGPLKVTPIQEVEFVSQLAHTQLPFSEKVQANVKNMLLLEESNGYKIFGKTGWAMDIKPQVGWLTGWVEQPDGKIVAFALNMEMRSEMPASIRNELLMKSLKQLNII
Protocol: (§1) The Michaelis-Menten constant (Km) was determined by fitting the data to the Michaelis-Menten equation, following established protocols ([38]). The kcat (hydrolysis rate constant of the β-lactamase) was obtained by linearization of the kinetic data ([39]). To assess the possible inhibitory capacity of enmetazobactam against the CHDLs of A. baumannii, specific OXA-23 inhibition kinetics assays were performed in a Nanoquant Infinite spectrophotometer (Tecan). […] Also, the dissociation constant (koff), which represents the rate at which the enzyme-inhibitor complex dissociates (i.e., the proportion of the enzyme-inhibitor complex that dissociates per unit of time), was determined through a jump-dilution assay that monitored OXA-23 activity recovery as the enzyme-inhibitor complex dissociated. OXA-23 (1 µM) was preincubated for 30 min at 37°C with excess of inhibitors (50× IC₅₀) to ensure full acyl-enzyme complex formation. Subsequently, the mixture was diluted 1:5,000 to allow gradual complex dissociation. […] Enzymatic activity, reflecting the progressive dissociation of the acyl-enzyme complex, was monitored spectrophotometrically at 490 nm for 8 h. The resulting progress curves were fitted using GraphPad Prism (GraphPad Software, MA, USA) to equation 1 to estimate koff, where V0 is the initial, inhibited enzyme velocity; Vs is the steady-state uninhibited enzyme velocity, and t is time.

OXA-23 [4] = target: T1, OXA-23; experiment: Jump-dilution dissociation assay (koff, t1/2) with OXA-23; format: biochemical
Protocol: as §1
(1) P=Vs×t+(V0−Vs)×[1−exp^(−koff × t)]/koff

OXA-24/40 = conditions: cited from earlier work

Compound: OXA-23 (Acinetobacter baumannii)
- Km [1]: 171.85 ± 55.78 µM
- kcat [1]: 0.177 ± 0.056 s⁻¹
- kcat/Km [1]: 1030 M⁻¹ s⁻¹

Compound: colistin
- MIC ([2]; isolate Ab4 (OXA-23)): 1 µg/mL
- MIC ([2]; isolate Ab138 (OXA-58)): 1 µg/mL
- MIC ([2]; isolate Ab180 (OXA-24/40)): 0.25 µg/mL

Compound: CC1=C[C@@H]2CN(C(=O)N2OS(=O)(=O)O)[C@@H]1C(N)=O [durlobactam]
- IC50 (OXA-23 [3]): 170 nM
- residence time (OXA-23 [4]; jump dilution): 412 ± 4 min
- koff (OXA-23 [4]; jump dilution 1:5,000): 2.8e-05 s⁻¹
- IC50 (OXA-24/40): 190 nM
